Measured values taken from US11400093B2, “Deuterated elagolix-like compositions and methods” (Lupin Inc., priority 2019, dated 2022).

Assays:
Assay type in all cases: in vitro ADME
[1] = test system: cDNA-expressed CYP1A2, CYP2A6, CYP2B6, CYP2C8, CYP2C9, CYP2C19, CYP2D6, CYP2E1, CYP3A4, and CYP3A5; assay: Metabolism by cDNA-expressed human CYP enzymes, all isoforms (parent remaining); settings: for average percent of parent compound remaining for all isoforms and concentrations: 1.0 μM and 10 μM, 120 minutes incubation, all ten CYP isoforms
Protocol: (§1) A study was conducted to determine the effect of deuteration on the metabolism of elagolix by human cytochrome P450 (CYP) enzymes. The metabolism of 4-[[(1R)-2-[5-(2-fluoro-3-methoxyphenyl)-3-[[2-fluoro-6(trifluoromethyl)phenyl]methyl]-3,6-dihydro-4-methyl-2,6-dioxo-1(2H)-pyrimidinyl]-1-phenylethyl]amino] butanoic acid-d3 (elagolix-d3) sodium salt and 4-[[(1R)-2-[5-(2-fluoro-3-methoxyphenyl)-3-[[2-fluoro-6(trifluoromethyl)phenyl] methyl]-3,6-dihydro-4-methyl-2,6-dioxo-1(2H)-pyrimidinyl]-1-phenylethyl]amino] butanoic acid-d6 (elagolix-d6) sodium salt by cDNA-expressed CYP enzymes were investigated in vitro and compared to results obtained with undeuterated elagolix to determine which human cytochrome P450 (CYP) enzymes are involved in the metabolism of elagolix, elagolix-d3, and elagolix-d6.
Commercially available cDNA-expressed human CYP enzymes were used for this study.
A 600 μL reaction mixture containing enzyme protein, NADPH generating system (1.3 mM NADP+, 3.3 mM glucose-6-phosphate, 0.4 U/mL glucose-6-phosphate dehydrogenase, 3.3 mM magnesium chloride) and each test article (elagolix, elagolix-d3, elagolix-d6) at two concentrations (e.g. 1 μM and 10 μM) in 100 mM potassium phosphate (pH 7.4) was incubated at 37° C. At two time points (0 and 120 min), the reaction was stopped by removing an aliquot and combining it with an equal volume of cold acetonitrile containing an internal standard (deuterated elagolix was used as the internal standard for elagolix, and elagolix was used as the internal standard for elagolix-d3 and -d6) and placed on ice. Samples were centrifuged to pellet the protein and the supernatant was frozen at −20° C. for subsequent analysis by LC-MS/MS.
Protein concentrations were constant for all isoforms within each experiment and standardized by the addition of control microsomes. Incubations were performed in duplicate. Incubations with vector control enzyme preparations and without enzyme source were included as negative controls.
All other positive controls were assayed at one concentration in duplicate in accordance with the methods described above. The percent of parent remaining at the end of the incubation was compared to 0 min based on the peak area ratio of the substrate and internal standard.
LC-MS/MS methods for elagolix, elagolix-d3, and elagolix-d6 were developed. The fraction of parent compound remaining compared to 0 min was determined based on peak area ratio (analyte/internal standard).
Elagolix, elagolix-d3, and elagolix-d6 at 1.0 μM and 10 μM were each incubated in the presence of cDNA-expressed CYP1A2, CYP2A6, CYP2B6, CYP2C8, CYP2C9, CYP2C19, CYP2D6, CYP2E1, CYP3A4, and CYP3A5 for 120 minutes. The average percent of parent compound remaining for all isoforms and concentrations was >11% for elagolix, >60% for elagolix-d3, and >26% for elagolix-d6.

cDNA-expressed CYP3A5 = molecular target: T1, cDNA-expressed CYP3A5 (Homo sapiens, UniProt P20815); assay: Metabolism by cDNA-expressed CYP3A5 (parent remaining); settings: 1 μM, 120 min
T1 construct: purchased
T1 sequence (P20815 whole entry): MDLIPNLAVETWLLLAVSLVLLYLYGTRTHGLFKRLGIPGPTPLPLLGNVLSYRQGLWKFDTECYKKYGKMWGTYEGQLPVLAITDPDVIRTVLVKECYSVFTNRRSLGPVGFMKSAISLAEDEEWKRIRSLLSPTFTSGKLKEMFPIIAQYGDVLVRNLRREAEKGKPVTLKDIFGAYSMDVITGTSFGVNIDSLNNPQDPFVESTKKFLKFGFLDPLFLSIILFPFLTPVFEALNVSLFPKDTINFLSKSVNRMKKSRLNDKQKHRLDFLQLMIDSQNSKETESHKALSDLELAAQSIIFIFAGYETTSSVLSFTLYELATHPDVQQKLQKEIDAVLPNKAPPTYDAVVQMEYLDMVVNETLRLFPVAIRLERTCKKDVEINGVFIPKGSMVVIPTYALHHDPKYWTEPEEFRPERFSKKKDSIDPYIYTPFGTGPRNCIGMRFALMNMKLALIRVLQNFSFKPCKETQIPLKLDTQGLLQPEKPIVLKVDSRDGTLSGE
Protocol: as §1
(§2) Commercially available cDNA-expressed human CYP enzymes were used for this study. […]
(§3) LC-MS/MS methods for elagolix, elagolix-d3, and elagolix-d6 were developed. The fraction of parent compound remaining compared to 0 min was determined based on peak area ratio (analyte/internal standard). […]

cDNA-expressed CYP2D6 = molecular target: T2, cDNA-expressed CYP2D6 (Homo sapiens, UniProt P10635); assay: Metabolism by cDNA-expressed CYP2D6 (parent remaining); settings: 1 μM, 120 min
T2 construct: purchased
T2 sequence (P10635 whole entry): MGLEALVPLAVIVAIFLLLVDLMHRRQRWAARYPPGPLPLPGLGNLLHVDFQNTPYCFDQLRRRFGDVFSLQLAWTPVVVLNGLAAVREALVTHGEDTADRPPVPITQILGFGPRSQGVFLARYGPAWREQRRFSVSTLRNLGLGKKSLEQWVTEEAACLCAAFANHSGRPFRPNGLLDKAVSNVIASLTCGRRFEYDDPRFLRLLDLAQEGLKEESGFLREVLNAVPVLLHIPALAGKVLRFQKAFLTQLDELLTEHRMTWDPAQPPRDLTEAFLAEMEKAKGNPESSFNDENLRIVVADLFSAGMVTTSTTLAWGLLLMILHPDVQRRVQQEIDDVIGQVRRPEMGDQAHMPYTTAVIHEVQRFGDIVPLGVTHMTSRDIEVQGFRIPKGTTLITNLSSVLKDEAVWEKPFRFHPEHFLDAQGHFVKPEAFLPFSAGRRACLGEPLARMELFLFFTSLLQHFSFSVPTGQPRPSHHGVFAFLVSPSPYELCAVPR
Protocol: as §1, §2, §3

| average percent of parent compound remaining for all isoforms and concentrations [1] [%] | percent parent remaining, cDNA-expressed CYP3A5 (cDNA-expressed CYP3A5) [%] | percent parent remaining, cDNA-expressed CYP2D6 (cDNA-expressed CYP2D6) [%] | average amount of parent compound in a CYP enzyme assay after 120 minutes relative to that of elagolix [1] | depletion by cDNA-expressed CYP2D6 (cDNA-expressed CYP2D6) | Compound |
| --- | --- | --- | --- | --- | --- |
| > 11 | 11 | 62 | – | – | COc1cccc(-c2c(C)n(Cc3c(F)cccc3C(F)(F)F)c(=O)n(C[C@H](NCCCC(=O)O)c3ccccc3)c2=O)c1F [elagolix, 4-({(1R)-2-[5-(2-fluoro-3methoxyphenyl)-3-{[2-fluoro-6-(trifluoromethyl)phenyl]methyl}-4-methyl-2,6-dioxo-3,6dihydropyrimidin-1(2H)-yl]-1-phenylethyl}amino)butanoate] |
| > 60 | 60 | – | more than 400% | did not demonstrate any depletion | [2H]C([2H])([2H])Oc1cccc(-c2c(C)n(Cc3c(F)cccc3C(F)(F)F)c(=O)n(C[C@H](NCCCC(=O)O)c3ccccc3)c2=O)c1F [elagolix-d3, 4-[[(1R)-2-[5-(2-fluoro-3-methoxyphenyl)-3-[[2-fluoro-6(trifluoromethyl)phenyl]methyl]-3,6-dihydro-4-methyl-2,6-dioxo-1(2H)-pyrimidinyl]-1-phenylethyl]amino] butanoic acid-d3] |
| > 26 | – | – | 136% | – | [2H]C([2H])(N[C@@H](Cn1c(=O)c(-c2cccc(OC)c2F)c(C)n(Cc2c(F)cccc2C(F)(F)F)c1=O)c1ccccc1)C([2H])([2H])C([2H])([2H])C(=O)O [elagolix-d6, 4-[[(1R)-2-[5-(2-fluoro-3-methoxyphenyl)-3-[[2-fluoro-6(trifluoromethyl)phenyl]methyl]-3,6-dihydro-4-methyl-2,6-dioxo-1(2H)-pyrimidinyl]-1-phenylethyl]amino] butanoic acid-d6] |
